In patent US20250285714A1, “A PHARMACEUTICAL PLATFORM TECHNOLOGY FOR DRUG DISCOVERY AND CONSUMER HEALTH PRODUCT DEVELOPMENT” (SINOVEDA CANADA INC., priority 2021, published 2025):

Key:
[1] = human
Source text: An inhouse physiologically based pharmacokinetic (PBPK) simulation program has been established. It supports one, two and multi-compartment models. The compartmental model program was designed using Matlab and Simulink to emulate human physiological conditions. With appropriate human physiological parameter input, absorption, distribution, metabolism and excretion profiles of compounds of interest can be estimated in human.
The parameter used for the evaluation is maximum exposure index (MEI), a product of AUC and the highest percentage recorded for Cannabis.

HepG2 cells [2] = experiment: rtPCR TaqMan array of cancer pathway genes in treated HepG2 cells; format: cell-based, human; settings: 6 h; CBD 17, CBC 23, CBN 20, 1:1:1 17, sorafenib 12 μg/ml
Protocol: rt-PCR: Target cancer gene pathways will be analyzed using a custom Taqman array card exploring 91 unique genes involved with a few cancer pathways.
Two million HepG2 cells in IMDM media with 20% FBS, and 1% ethanol were seeded in T75 flasks and incubated at 37° C., 7.5% CO2 until 70-80% confluent (approx. […]). The media were replenished with media containing individual cannabinoids (CBD 17 μg/ml, CBC 23 μg/ml, CBN 20 μg/ml) and cannabinoid mixture of CBD:CBC:CBN of 1:1:1 (17 μg/ml) and incubated for 6 hours prior to harvest. […] Untreated cells were included as a negative control Glyceraldehyde-3-phosphate dehydrogenase (GAPDH) was included as an endogenous control and used for normalization of the data.
RNA was extracted using Invitrogen's Dynabead mRNA DIRECT kit using the recommended protocol to provide 50 μL of a purified mRNA solution. […] of RT master mix was mixed into the mRNA solution and the mixture left to react at 37° C. for 60 minutes. Reverse transcriptase inactivation was performed at 95° C. for 5 minutes and the resulting cDNA samples were kept at 4° C. until use. Fifty-five microliters of TaqMan Fast Advance master mix were added to an equal amount of cDNA sample containing 1 μg/100 μl of cDNA, which was loaded into each card reservoir. The cards were centrifuged twice at 1200 RPM for 3 minutes in a Legend XFR centrifuge and the rtPCR reaction was conducted in a QuantStudio7 PCR instrument using the standard settings with 40 amplification cycles.
Assessment of cancer gene pathways were carried out using custom designed TaqMan array cards exploring 86 genes linked to numerous cancer related pathways. […] In addition to individual pathways, genes linked to specific cellular processes were also explored.

HepG2 cells [3] = experiment: In-cell Western-blot protein expression in treated HepG2 cells; format: cell-based, human; settings: six hour treatment; CBD 17, CBC 23, CBN 20, Sorafenib 12, SCI-111 17, SCI-521 17 μg/ml
Protocol: In-cell Western-blot analysis: Protein expression was assessed by seeding 1000 HepG2 cells/well from cyro frozen stocks into 384 well optical bottom black culture plates from Thermo-Scientific (item 142761) in IMDM media with 20% FBS and 1% ethanol. […] After a six hour treatment, the cells were fixated with 4% formaldehyde for 15 minutes, permeated with 0.1% triton-x100 for 10 minutes, and left in blocking buffer (phosphate buffered saline (PBS) with 3% bovine serum albumin (BSA)) overnight at 4 degrees Celsius. The following day, the cells were rinsed with PBS, incubated with 25 μl PBS containing primary antibody (Table 1) for 3 hours at 25° C. Subsequently, the primary antibody was removed, cells were rinsed twice with PBS, and incubated with 25 μl of PBS containing the secondary antibody (Rabbit: Alexa Fluor 790 donkey anti-rabbit IgG (H+L) Lot 2409042; Mouse: Alexa Fluor 790 donkey anti-mouse IgG (H+L) Lot 2300923) at a concentration of 1:2000. Draq5 (1:2000) was added for normalization of data. After an hour incubation in the secondary antibody, the cells were rinsed with PBS and readings at 700 and 800 nm were acquired on a Licor Odyssey fluorescence imager with a resolution of 21 μm. Analysis was subsequently performed with Empiria Studio 2.1. A total of 5 samples were collected per antibody and the sample size was reduced to 3 for the statistical analysis.

[4] = known human values; cited from earlier work

C=CC(C)(O)CCC=C(C)C (centres unmarked) [Linalool]
MEI, AUC* % mass [1]: 0.03

CCCCCc1cc(O)c2c(c1)OC(C)(CCC=C(C)C)C=C2 (centres unmarked) [CBC, Cannabichromene]
rtPCR Log2 fold change relative to untreated cells, AKT1 (PI3K/AKT/MTOR) (HepG2 cells [2]): −1.915 Log2 fold change | rtPCR Log2 fold change relative to untreated cells, APFAF1 (Apoptosis) (HepG2 cells [2]): −1.945 Log2 fold change | rtPCR Log2 fold change relative to untreated cells, BAD (Apoptosis) (HepG2 cells [2]): −2.917 Log2 fold change | rtPCR Log2 fold change relative to untreated cells, BAX (Apoptosis) (HepG2 cells [2]): −2.332 Log2 fold change | rtPCR Log2 fold change relative to untreated cells, BCL2 (Apoptosis) (HepG2 cells [2]): 3.95 Log2 fold change | rtPCR Log2 fold change relative to untreated cells, BCL2L1 (Apoptosis) (HepG2 cells [2]): −1.241 Log2 fold change | rtPCR Log2 fold change relative to untreated cells, CAMK1 (Ca signaling) (HepG2 cells [2]): −2.15 Log2 fold change | rtPCR Log2 fold change relative to untreated cells, CCND1 (Cell Cycle Arrest) (HepG2 cells [2]): −1.206 Log2 fold change | rtPCR Log2 fold change relative to untreated cells, CDK1 (Cell Cycle Arrest) (HepG2 cells [2]): −1.725 Log2 fold change | rtPCR Log2 fold change relative to untreated cells, CDK2 (Cell Cycle Arrest) (HepG2 cells [2]): −1.316 Log2 fold change | rtPCR Log2 fold change relative to untreated cells, CDK4 (Cell Cycle Arrest) (HepG2 cells [2]): −1.914 Log2 fold change | rtPCR Log2 fold change relative to untreated cells, CDK6 (Cell Cycle Arrest) (HepG2 cells [2]): −1.735 Log2 fold change | rtPCR Log2 fold change relative to untreated cells, CRK - p38 (Cellular Adhesion) (HepG2 cells [2]): −1.414 Log2 fold change | rtPCR Log2 fold change relative to untreated cells, CTNNB1 (Cellular Adhesion) (HepG2 cells [2]): −1.487 Log2 fold change | rtPCR Log2 fold change relative to untreated cells, ELK1 (Ca signaling) (HepG2 cells [2]): −3.143 Log2 fold change | rtPCR Log2 fold change relative to untreated cells, GSK3B (Cellular Adhesion) (HepG2 cells [2]): −1.728 Log2 fold change | rtPCR Log2 fold change relative to untreated cells, MAP1LC3A (MAP kinase) (HepG2 cells [2]): −2.006 Log2 fold change | rtPCR Log2 fold change relative to untreated cells, MAP2K1 (MAP kinase) (HepG2 cells [2]): −2.534 Log2 fold change | rtPCR Log2 fold change relative to untreated cells, MAPK8 (MAP kinase) (HepG2 cells [2]): −2.068 Log2 fold change | rtPCR Log2 fold change relative to untreated cells, MITF (Drug Resistance) (HepG2 cells [2]): −4.421 Log2 fold change | rtPCR Log2 fold change relative to untreated cells, MNT (Cell Cycle Arrest) (HepG2 cells [2]): −2.804 Log2 fold change | rtPCR Log2 fold change relative to untreated cells, MTOR (PI3K/AKT/MTOR) (HepG2 cells [2]): −1.847 Log2 fold change | rtPCR Log2 fold change relative to untreated cells, NOTCH1 (NOTCH) (HepG2 cells [2]): −1.949 Log2 fold change | rtPCR Log2 fold change relative to untreated cells, PAK3 (P21) (Cell Cycle Arrest) (HepG2 cells [2]): −1.643 Log2 fold change | rtPCR Log2 fold change relative to untreated cells, PIK3C2A (PI3K/AKT/MTOR) (HepG2 cells [2]): −1.77 Log2 fold change | rtPCR Log2 fold change relative to untreated cells, PIK3R5 (PI3K/AKT/MTOR) (HepG2 cells [2]): −1.821 Log2 fold change | rtPCR Log2 fold change relative to untreated cells, RAC1 (MAP kinase) (HepG2 cells [2]): −1.422 Log2 fold change | rtPCR Log2 fold change relative to untreated cells, RASA1 (MAP kinase) (HepG2 cells [2]): −1.307 Log2 fold change | rtPCR Log2 fold change relative to untreated cells, RASSF1 (MAP kinase) (HepG2 cells [2]): −1.813 Log2 fold change | rtPCR Log2 fold change relative to untreated cells, ROCK1 (Cellular Adhesion) (HepG2 cells [2]): −1.213 Log2 fold change | rtPCR Log2 fold change relative to untreated cells, SMAD2 (TGF signaling) (HepG2 cells [2]): −1.617 Log2 fold change | rtPCR Log2 fold change relative to untreated cells, SMAD3 (TGF signaling) (HepG2 cells [2]): −2.487 Log2 fold change | rtPCR Log2 fold change relative to untreated cells, STAT1 (JAK-STAT) (HepG2 cells [2]): −2.228 Log2 fold change | rtPCR Log2 fold change relative to untreated cells, STAT5A (JAK-STAT) (HepG2 cells [2]): −1.559 Log2 fold change | rtPCR Log2 fold change relative to untreated cells, SUFU (Hedgehog) (HepG2 cells [2]): −1.668 Log2 fold change | rtPCR Log2 fold change relative to untreated cells, TAZ (HIPPO) (HepG2 cells [2]): −1.874 Log2 fold change | rtPCR Log2 fold change relative to untreated cells, gene name not printed (Angiogenesis, row r45) (HepG2 cells [2]): −1.521 Log2 fold change | rtPCR Log2 fold change relative to untreated cells, gene name not printed (Cell Cycle Arrest, row r42) (HepG2 cells [2]): −2.312 Log2 fold change | rtPCR Log2 fold change relative to untreated cells, gene name not printed (Cellular Adhesion, row r57) (HepG2 cells [2]): −1.865 Log2 fold change | rtPCR Log2 fold change relative to untreated cells, gene name not printed (HIPPO, row r33) (HepG2 cells [2]): −1.568 Log2 fold change | rtPCR Log2 fold change relative to untreated cells, gene name not printed (PI3K/AKT/MTOR, row r20) (HepG2 cells [2]): −2.204 Log2 fold change | rtPCR Log2 fold change relative to untreated cells, gene name not printed (PI3K/AKT/MTOR, row r22) (HepG2 cells [2]): −2.291 Log2 fold change | rtPCR Log2 fold change relative to untreated cells, gene name not printed (Receptors, row r7) (HepG2 cells [2]): −2.51 Log2 fold change | Protein fold change, DVLD (Cellular Adhesion) (HepG2 cells [3]): 1.34 Fold change | Protein fold change, MEK (MAP kinase/PI3K) (HepG2 cells [3]): 1.22 Fold change | Protein fold change, MEK PO4 (MAP kinase/PI3K) (HepG2 cells [3]): 1.68 Fold change | Protein fold change, MET PO4 (Receptor) (HepG2 cells [3]): 1.80 Fold change | Protein fold change, PTEN PO4 (MAP kinase/PI3K) (HepG2 cells [3]): 1.40 Fold change | Protein fold change, TEAD2 (HIPPO signaling) (HepG2 cells [3]): 1.34 Fold change | Protein fold change, c-MYC (Apoptosis) (HepG2 cells [3]): 1.70 Fold change | Protein fold change, p53 (Apoptosis) (HepG2 cells [3]): 1.26 Fold change

Cc1cc(=O)n(-c2ccccc2)n1C [antipyrine]
Hepatic extraction ratio (E) [4]: 0.1

CC1(C)C2CCC1(C)C(O)C2 (centres unmarked) [Borneol]
MEI, AUC* % mass [1]: 0.10

CC1=CCC2CC1C2(C)C (stereo not drawn) [α-pinene]
MEI, AUC* % mass [1]: 65.77

CCCCCc1cc(O)c2c(c1)OC(C)(C)c1ccc(C)cc1-2 [CBN, Cannabinol]
rtPCR Log2 fold change relative to untreated cells, BAD (Apoptosis) (HepG2 cells [2]): −1.041 Log2 fold change | rtPCR Log2 fold change relative to untreated cells, ELK1 (Ca signaling) (HepG2 cells [2]): −1.026 Log2 fold change | rtPCR Log2 fold change relative to untreated cells, MAP3K (MAP kinase) (HepG2 cells [2]): 1.518 Log2 fold change | rtPCR Log2 fold change relative to untreated cells, MAPK8 (MAP kinase) (HepG2 cells [2]): −1.284 Log2 fold change | rtPCR Log2 fold change relative to untreated cells, NOTCH1 (NOTCH) (HepG2 cells [2]): −1.084 Log2 fold change | rtPCR Log2 fold change relative to untreated cells, PIK3C2A (PI3K/AKT/MTOR) (HepG2 cells [2]): −1.181 Log2 fold change | rtPCR Log2 fold change relative to untreated cells, PIK3R5 (PI3K/AKT/MTOR) (HepG2 cells [2]): −2.689 Log2 fold change | rtPCR Log2 fold change relative to untreated cells, PPARG (Receptors) (HepG2 cells [2]): 2.204 Log2 fold change | rtPCR Log2 fold change relative to untreated cells, SMAD3 (TGF signaling) (HepG2 cells [2]): −3.711 Log2 fold change | rtPCR Log2 fold change relative to untreated cells, SMO (Hedgehog) (HepG2 cells [2]): 2.336 Log2 fold change | rtPCR Log2 fold change relative to untreated cells, TAZ (HIPPO) (HepG2 cells [2]): −1.143 Log2 fold change | Protein fold change, DVLD (Cellular Adhesion) (HepG2 cells [3]): 1.66 Fold change | Protein fold change, MEK PO4 (MAP kinase/PI3K) (HepG2 cells [3]): 1.33 Fold change | Protein fold change, PI3K (MAP kinase/PI3K) (HepG2 cells [3]): 1.46 Fold change | Protein fold change, TEAD2 (HIPPO signaling) (HepG2 cells [3]): 1.35 Fold change | Protein fold change, c-MYC (Apoptosis) (HepG2 cells [3]): 1.40 Fold change | Protein fold change, p53 (Apoptosis) (HepG2 cells [3]): 1.22 Fold change

Cc1ncc2n1-c1ccc(Cl)cc1C(c1ccccc1F)=NC2 [midazolam]
Hepatic extraction ratio (E) [4]: 0.5

CCCCCc1cc(O)c(C/C=C(\C)CCC=C(C)C)c(O)c1 [Cannabigerol (CBG), Cannabigerol]
MEI, AUC* % mass [1]: 4.89
